As a reminder, the pIC50 is −log10 of the IC50, conventionally taken in molar units. Low readings indicate a large IC50, high ones a small IC50.

What all share (format): biochemical
The target of assay [1] is T1, 26S proteasome β1 subunit (caspase-like activity) (Homo sapiens, UniProt P28072).
T1 construct: gene PSMB6; purified human 26S proteasome; with other subunits of the 26S proteasome
T1 sequence (P28072 35-239): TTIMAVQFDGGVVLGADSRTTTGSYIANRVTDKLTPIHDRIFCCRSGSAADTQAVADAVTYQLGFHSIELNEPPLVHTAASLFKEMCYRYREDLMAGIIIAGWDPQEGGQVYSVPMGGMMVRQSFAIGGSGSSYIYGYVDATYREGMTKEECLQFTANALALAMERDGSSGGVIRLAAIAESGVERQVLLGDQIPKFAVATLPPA
The assay can be described thus: peptidase assay of purified human […] proteasome with Z-Nle-Pro-Nle-Asp-aminoluciferin.

The target in assay [2] is T2, 26S proteasome β2 subunit (trypsin-like activity) (Homo sapiens, UniProt Q99436).
T2 construct: gene PSMB7; purified human 26S proteasome; with other subunits of the 26S proteasome
T2 sequence (Q99436 44-277): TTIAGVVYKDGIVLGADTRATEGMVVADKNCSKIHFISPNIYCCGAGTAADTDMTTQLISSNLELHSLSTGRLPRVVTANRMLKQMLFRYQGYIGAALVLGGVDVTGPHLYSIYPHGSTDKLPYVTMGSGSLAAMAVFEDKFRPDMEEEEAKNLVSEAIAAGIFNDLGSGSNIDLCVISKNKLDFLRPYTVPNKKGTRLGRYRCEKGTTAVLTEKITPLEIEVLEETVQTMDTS
The assay can be described thus: peptidase assay of purified human […] proteasome with Ac-Arg-Leu-Arg-AMC.

The target of assay [3] is T3, 26S proteasome β5 subunit (chymotrypsin-like activity) (Homo sapiens, UniProt P28074).
T3 construct: gene PSMB5; purified human 26S proteasome; with other subunits of the 26S proteasome
T3 sequence (P28074 60-263): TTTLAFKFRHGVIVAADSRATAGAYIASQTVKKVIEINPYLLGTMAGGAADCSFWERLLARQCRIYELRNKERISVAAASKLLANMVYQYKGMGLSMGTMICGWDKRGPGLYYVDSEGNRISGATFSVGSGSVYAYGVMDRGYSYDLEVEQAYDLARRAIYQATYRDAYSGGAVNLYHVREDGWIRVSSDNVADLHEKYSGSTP
The assay can be described thus: peptidase assay of purified human […] proteasome with Suc-Leu-Leu-Val-Tyr-AMC.

pIC50: −log10 of the molar value.

Turning to `Cc1cc(O)c2c(c1)C(=O)c1cc(O)cc(O)c1C2=O` [emodin, 1,3,8-trihydroxy-6-methylanthraquinone], the pIC50 in assay [1] is 6.62; in assay [2], 4.68; in assay [3] it was 5.91.
